Earlier results, collected in patent publication US20130197188A1 (priority 2010, published 2013).

Key:
[1] = system: patients with moderate asthma affliction; settings: brief infusion; healthy and diseased subjects
[2] = system: patients with acute decompensated heart failure (ADHF)
[3] = system: patients with chronic congestive heart failure; settings: 15 ng/kg/min, 10-hour infusion; loss of action during infusion

Question: Which effect on bronchoconstriction [1] does the source give for urodilatin here?
Answer: Its effect on bronchoconstriction is “biologically relevant effectiveness”.

Question: What about the “changes of the baseline in pulmonary capillary wedge pressure (PCWP)” value ([2]; 15+30 ng/kg/min, compared with the placebo group, FIG. 4A) of the same substance?
Answer: Its value is “significant reductions”.

Question: What about the “changes of the cardiac index (CI)” value ([2]; 15 and 30 ng/kg/min, FIG. 4C) of the same substance?
Answer: Its value is “significant increase”.

Question: And the “persistence of the effect on PCWP and CI (rebound)” value ([2]; during infusion, slight increase of PCWP and partial drop of CI)?
Answer: The value was “slightly reversed after 6 to 8 hours”.

Question: And the “symptoms, morbidity and mortality” value ([2]; for all doses)?
Answer: The value was “significantly improved”.

Question: And the “therapeutic window (dose)” value ([2]; intermediate dose applied)?
Answer: Its value is “about 15 ng/kg/min”.

Question: And the “central venous pressure (CVP)” value [3]?
Answer: Its value is “increases slightly already after 5 hours of infusion”.

Question: What about the urine flow [3] of the same substance?
Answer: The urine flow was “loss of action after 8 hours of infusion”.
